Measured values reported in patent publication US20180055032A1, “ODORS FOR PSYLLID TRAPPING, REPELLING AND CONTROL” (The Regents of the University of California, priority 2011, published 2018).
Read-outs that look alike come from different tables or passages of the source.

Experiments:
Assay type in all cases: cell-based, Diaphorina citri
[1] = test system: neuron 4A (rhinarial plate on flagellomere 4); assay: single-sensillum electrophysiology, odor response of neuron 4A; conditions: for odor response (frequency of action potentials during stimulus minus baseline), 4A: Table 1, odor diluted to 1%, 50 μL in cartridge; for response to inhibitory odors, 4A: Table 2, odor diluted to 10^−2, 50 μL in cartridge; on response to inhibitory odors, 4A: key: 0, no response; +, >50 spikes/second; ++, >100 spikes/second; +++, >150 spikes/second
[2] = test system: neuron 7B (rhinarial plate on flagellomere 7); conditions: for odor response (frequency of action potentials during stimulus minus baseline), 7B: Table 1, odor diluted to 1%, 50 μL in cartridge
[3] = test system: neuron 2A (rhinarial plate on flagellomere 2); assay: single-sensillum electrophysiology, odor response of neuron 2A; conditions: for odor response (frequency of action potentials during stimulus minus baseline), 2A: Table 1, odor diluted to 1%, 50 μL in cartridge; for response to inhibitory odors, 2A: Table 2, odor diluted to 10^−2, 50 μL in cartridge; on all read-outs here: key: 0, no response; +, >50 spikes/second; ++, >100 spikes/second; +++, >150 spikes/second
[4] = test system: neuron 6C (rhinarial plate on flagellomere 6); assay: single-sensillum electrophysiology, odor response of neuron 6C; conditions: for odor response (frequency of action potentials during stimulus minus baseline), 6C: Table 1, odor diluted to 1%, 50 μL in cartridge; for response to inhibitory odors, 6C: Table 2, odor diluted to 10^−2, 50 μL in cartridge
[5] = test system: neuron 6B (rhinarial plate on flagellomere 6); assay: single-sensillum electrophysiology, odor response of neuron 6B; conditions: for odor response (frequency of action potentials during stimulus minus baseline), 6B: Table 1, odor diluted to 1%, 50 μL in cartridge; for response to inhibitory odors, 6B: Table 2, odor diluted to 10^−2, 50 μL in cartridge
[6] = test system: neuron 4B (rhinarial plate on flagellomere 4); conditions: for odor response (frequency of action potentials during stimulus minus baseline), 4B: Table 1, odor diluted to 1%, 50 μL in cartridge
[7] = test system: neuron 7A (rhinarial plate on flagellomere 7); assay: single-sensillum electrophysiology, odor response of neuron 7A; conditions: for odor response (frequency of action potentials during stimulus minus baseline), 7A: Table 1, odor diluted to 1%, 50 μL in cartridge; for response to inhibitory odors, 7A: Table 2, odor diluted to 10^−2, 50 μL in cartridge; on all read-outs here: key: 0, no response; +, >50 spikes/second; ++, >100 spikes/second; +++, >150 spikes/second
[8] = test system: neuron 2B (rhinarial plate on flagellomere 2); assay: single-sensillum electrophysiology, odor response of neuron 2B; conditions: for odor response (frequency of action potentials during stimulus minus baseline), 2B: Table 1, odor diluted to 1%, 50 μL in cartridge; for response to inhibitory odors, 2B: Table 2, odor diluted to 10^−2, 50 μL in cartridge
[9] = test system: neuron 7C (rhinarial plate on flagellomere 7); assay: single-sensillum electrophysiology, odor response of neuron 7C; conditions: for odor response (frequency of action potentials during stimulus minus baseline), 7C: Table 1, odor diluted to 1%, 50 μL in cartridge; for response to inhibitory odors, 7C: Table 2, odor diluted to 10^−2, 50 μL in cartridge
[10] = test system: neuron 6A (rhinarial plate on flagellomere 6); assay: single-sensillum electrophysiology, odor response of neuron 6A; conditions: for odor response (frequency of action potentials during stimulus minus baseline), 6A: Table 1, odor diluted to 1%, 50 μL in cartridge; for response to inhibitory odors, 6A: Table 2, odor diluted to 10^−2, 50 μL in cartridge
[11] = test system: neuron 2C (rhinarial plate on flagellomere 2); assay: single-sensillum electrophysiology, odor response of neuron 2C; conditions: for odor response (frequency of action potentials during stimulus minus baseline), 2C: Table 1, odor diluted to 1%, 50 μL in cartridge; for response to inhibitory odors, 2C: Table 2, odor diluted to 10^−2, 50 μL in cartridge
[12] = test system: neuron 4C (rhinarial plate on flagellomere 4); assay: single-sensillum electrophysiology, odor response of neuron 4C; conditions: Table 2; odor diluted to 10^−2, 50 μL in cartridge; further: key: 0, no response; +, >50 spikes/second; ++, >100 spikes/second; +++, >150 spikes/second
[13] = Table 2, odor diluted to 10^−2, 50 μL in cartridge

CC1=CC[C@H]2C[C@@H]1C2(C)C [(−)-α-pinene]
odor response (frequency of action potentials during stimulus minus baseline), 4A [1]: 0
odor response (frequency of action potentials during stimulus minus baseline), 7B [2]: 0
odor response (frequency of action potentials during stimulus minus baseline), 2A [3]: 0
odor response (frequency of action potentials during stimulus minus baseline), 6C [4]: 0
odor response (frequency of action potentials during stimulus minus baseline), 6B [5]: + (+, >50 spikes/second)
odor response (frequency of action potentials during stimulus minus baseline), 4B [6]: + (+, >50 spikes/second)
odor response (frequency of action potentials during stimulus minus baseline), 7A [7]: 0
odor response (frequency of action potentials during stimulus minus baseline), 2B [8]: 0
odor response (frequency of action potentials during stimulus minus baseline), 7C [9]: 0
odor response (frequency of action potentials during stimulus minus baseline), 6A [10]: 0
odor response (frequency of action potentials during stimulus minus baseline), 2C [11]: 0

C=C1CC[C@H]2C[C@@H]1C2(C)C [(−)-β-pinene]
odor response (frequency of action potentials during stimulus minus baseline), 4A [1]: 0
odor response (frequency of action potentials during stimulus minus baseline), 7B [2]: 0
odor response (frequency of action potentials during stimulus minus baseline), 2A [3]: 0
odor response (frequency of action potentials during stimulus minus baseline), 6C [4]: 0
odor response (frequency of action potentials during stimulus minus baseline), 6B [5]: + (+, >50 spikes/second)
odor response (frequency of action potentials during stimulus minus baseline), 4B [6]: + (+, >50 spikes/second)
odor response (frequency of action potentials during stimulus minus baseline), 7A [7]: 0
odor response (frequency of action potentials during stimulus minus baseline), 2B [8]: 0
odor response (frequency of action potentials during stimulus minus baseline), 7C [9]: 0
odor response (frequency of action potentials during stimulus minus baseline), 6A [10]: 0
odor response (frequency of action potentials during stimulus minus baseline), 2C [11]: 0

CC(=O)O [acetic acid]
response to inhibitory odors, 4A [1]: 0
response to inhibitory odors, 7B [2]: 0
response to inhibitory odors, 2A [3]: 0
response to inhibitory odors, 6C [4]: 0
response to inhibitory odors, 7A [7]: 0
response to inhibitory odors, 2B [8]: 0
response to inhibitory odors, 4C [12]: 0
response to inhibitory odors, 6A [10]: 0
response to inhibitory odors, 2C [11]: 0

CCCCCCN [hexylamine]
response to inhibitory odors, 4A [1]: 0
response to inhibitory odors, 7B [2, 13]: 0
response to inhibitory odors, 2A [3]: 0
response to inhibitory odors, 6C [4]: 0
response to inhibitory odors, 6B [5]: 0
response to inhibitory odors, 4B [6, 13]: 0
response to inhibitory odors, 7A [7]: 0
response to inhibitory odors, 2B [8]: 0
response to inhibitory odors, 7C [9]: 0
response to inhibitory odors, 6A [10]: 0
response to inhibitory odors, 2C [11]: 0

CC(C)C(=O)O [isobutyric acid]
response to inhibitory odors, 4A [1]: 0
response to inhibitory odors, 7B [2, 13]: 0
response to inhibitory odors, 2A [3]: 0
response to inhibitory odors, 6B [5]: 0
response to inhibitory odors, 7A [7]: 0
response to inhibitory odors, 2B [8]: 0
response to inhibitory odors, 7C [9]: 0
response to inhibitory odors, 6A [10]: 0
response to inhibitory odors, 2C [11]: 0

CCCCCN [pentylamine]
response to inhibitory odors, 4A [1]: 0
response to inhibitory odors, 7B [2, 13]: 0
response to inhibitory odors, 2A [3]: 0
response to inhibitory odors, 6C [4]: 0
response to inhibitory odors, 6B [5]: 0
response to inhibitory odors, 4B [6, 13]: 0
response to inhibitory odors, 7A [7]: 0
response to inhibitory odors, 7C [9]: 0
response to inhibitory odors, 6A [10]: 0
response to inhibitory odors, 2C [11]: 0

CCC(=O)O [propionic acid]
response to inhibitory odors, 4A [1]: 0
response to inhibitory odors, 7B [2, 13]: 0
response to inhibitory odors, 2A [3]: 0
response to inhibitory odors, 6C [4]: 0
response to inhibitory odors, 7A [7]: 0
response to inhibitory odors, 2B [8]: 0
response to inhibitory odors, 4C [12]: 0
response to inhibitory odors, 7C [9]: 0
response to inhibitory odors, 6A [10]: 0
response to inhibitory odors, 2C [11]: 0

c1ccncc1 [pyridine]
response to inhibitory odors, 4A [1]: 0
response to inhibitory odors, 7B [2]: 0
response to inhibitory odors, 2A [3]: 0
response to inhibitory odors, 6C [4]: 0
response to inhibitory odors, 6B [5]: 0
response to inhibitory odors, 4B [6]: 0
response to inhibitory odors, 7A [7]: 0
response to inhibitory odors, 2B [8]: 0
response to inhibitory odors, 7C [9]: 0
response to inhibitory odors, 6A [10]: 0
response to inhibitory odors, 2C [11]: 0
